Results from patent US12336982B2 (RODEO THERAPEUTICS CORPORATION, priority 2018, dated 2025).

Molecular target: T1, recombinant 15-PGDH (Homo sapiens, UniProt P15428)
T1 sequence (P15428 1-266): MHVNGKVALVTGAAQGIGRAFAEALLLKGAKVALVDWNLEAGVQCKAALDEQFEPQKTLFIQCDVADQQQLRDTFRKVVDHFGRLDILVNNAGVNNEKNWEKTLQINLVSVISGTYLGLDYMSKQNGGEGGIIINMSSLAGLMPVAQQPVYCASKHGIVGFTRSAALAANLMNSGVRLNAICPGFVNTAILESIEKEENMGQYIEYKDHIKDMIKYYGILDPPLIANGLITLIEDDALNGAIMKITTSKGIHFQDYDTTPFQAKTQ
Assay type: biochemical
Details: recombinant human 15-PGDH, in vitro; read-out: PDGH Assay-IC50
Source text: The Recombinant 15-PGDH is human unless otherwise specified.

Row | IC50 [nM] | SMILES
1 | ≥ 10 | COCC[S@+]([O-])c1sc2nc(-c3cnc4ncn(C)c4c3)cc(C3CC3)c2c1N [Example 406]
2 | < 2.5 | COCC[S+]([O-])c1sc2nc(-c3cnc4ncnn4c3)cc(C3CCC3)c2c1N (centres unmarked) [Example 400]
3 | < 2.5 | Nc1ncc(-c2cc(-c3ccno3)c3c(N)c([S+]([O-])C4CCC4)sc3n2)cn1 (centres unmarked) [Example 350]
4 | < 2.5 | Cn1nccc1-c1cc(-c2ccnnc2)nc2sc([S+]([O-])C3CCC3)c(N)c12 (centres unmarked) [Example 345]
5 | < 2.5 | COCC[S+]([O-])c1sc2nc(-c3cnn(C)c(=O)c3)cc(-c3ccccc3)c2c1N (centres unmarked) [Example 397]
6 | 2.5 to 10 | Cn1cncc(-c2cc(-c3ccccc3)c3c(N)c([S+]([O-])C4CCC4)sc3n2)c1=O (centres unmarked) [Example 410]
7 | ≥ 10 | CNc1ncc(-c2cc(-c3ccnn3C)c3c(N)c([S@@+]([O-])CCOC)sc3n2)cn1 [Example 332]
8 | ≥ 10 | COCC[S@+]([O-])c1sc2nc(-c3cnc4nn(C)cc4c3)nc(-c3ccccc3)c2c1N [Example 434]
9 | < 2.5 | COCC[S+]([O-])c1sc2nc(-c3cnc(N)nc3)nc(-c3ccccc3)c2c1N (centres unmarked) [Example 430]
10 | < 2.5 | COCC[S@@+]([O-])c1sc2nc(-c3cnc4c(c3)ncn4C)cc(C3CCC3)c2c1N [Example 374]
11 | < 2.5 | Cn1cnc2ncc(-c3cc(C4CC4)c4c(N)c([S+]([O-])C5CCC5)sc4n3)cc21 (centres unmarked) [Example 407]
12 | < 2.5 | COCC[S+]([O-])c1sc2nc(-c3cncnc3)cc(-c3ccon3)c2c1N (centres unmarked) [Example 352]
13 | < 2.5 | Cn1nccc1-c1cc(-c2cnc(NCCO)nc2)nc2sc([S+]([O-])C3CCC3)c(N)c12 (centres unmarked) [Example 312]
14 | < 2.5 | Cn1nccc1-c1cc(-c2cnc(NCCO)nc2)nc2sc([S+]([O-])C(C)(C)C)c(N)c12 (centres unmarked) [Example 354]
15 | < 2.5 | Cn1cncc(-c2cc(C3CCC3)c3c(N)c([S+]([O-])C4CCC4)sc3n2)c1=O (centres unmarked) [Example 409]
16 | 2.5 to 10 | COCC[S+]([O-])c1sc2nc(-c3ccc(NC(C)=O)nc3)cc(-c3ccnn3C)c2c1N (centres unmarked) [Example 393]

Row | IC50 [nM] | SMILES
17 | < 2.5 | Cn1ccc(-c2cc(-c3cnc(N)nc3)nc3sc([S+]([O-])C4CCC4)c(N)c23)n1 (centres unmarked) [Example 338]
18 | 2.5 to 10 | COCC[S+]([O-])c1sc2nc(-c3cnc(NCCO)nc3)nc(-c3ccccc3)c2c1N (centres unmarked) [Example 432]
19 | < 2.5 | COCC[S+]([O-])c1sc2nc(-c3cnc4nn(C)nc4c3)cc(-c3ccnn3C)c2c1N (centres unmarked) [Example 380]
20 | < 2.5 | COCC[S@@+]([O-])c1sc2nc(-c3cnc4nn(C)cc4c3)cc(C(F)(F)F)c2c1N [Example 418]
21 | < 2.5 | Cn1ccc(-c2cc(-c3cncnc3)nc3sc([S+]([O-])C4CCC4)c(N)c23)n1 (centres unmarked) [Example 280]
22 | < 2.5 | Cn1nccc1-c1cc(-c2cnc3nnn(C)c3c2)nc2sc([S+]([O-])C3CCC3)c(N)c12 (centres unmarked) [Example 369]
23 | 2.5 to 10 | Cn1nccc1-c1cc(-c2ccc3c(=O)[nH]ccc3c2)nc2sc([S+]([O-])C3CCC3)c(N)c12 (centres unmarked) [Example 316]
24 | 2.5 to 10 | COCC[S+]([O-])c1sc2nc(-c3ccc(NC(=O)OC)nc3)cc(-c3cccnc3)c2c1N (centres unmarked) [Example 390]
25 | ≥ 10 | Nc1c([S@@+]([O-])C2CCC2)sc2nc(-c3cncnc3)cc(-c3ccon3)c12 [Example 310]
26 | < 2.5 | COCC[S+]([O-])c1sc2nc(-c3cnc4nn(C)cc4c3)cc(-c3ccn(C)n3)c2c1N (centres unmarked) [Example 342]
27 | ≥ 10 | COCC[S@+]([O-])c1sc2nc(-c3cnc4c(c3)ncn4C)cc(C3CCC3)c2c1N [Example 375]
28 | < 2.5 | COC(=O)Nc1ccc(-c2cc(-c3ccnn3C)c3c(N)c([S+]([O-])C4CCC4)sc3n2)cn1 (centres unmarked) [Example 392]
29 | < 2.5 | Cn1cc2cc(-c3cc(C4CC4)c4c(N)c([S+]([O-])C5CCC5)sc4n3)cnc2n1 (centres unmarked) [Example 286]
30 | < 2.5 | Cn1nccc1-c1cc(-c2cnc3c(c2)nnn3C)nc2sc([S+]([O-])C3CCC3)c(N)c12 (centres unmarked) [Example 325]
31 | < 2.5 | COCC[S@@+]([O-])c1sc2nc(-c3cnc4nn(C)cc4c3)cc(-c3ccn(C)n3)c2c1N [Example 343]
32 | ≥ 10 | Nc1c([S@@+]([O-])C2CCC2)sc2nc(-c3cnc4ncnn4c3)cc(-c3ccccc3)c12 [Example 403]

The next lines start with the molecule.

Row | SMILES | IC50 [nM]
33 | Cn1nccc1-c1cc(-c2cnc3c(=O)n(C)ccc3c2)nc2sc([S+]([O-])C3CCC3)c(N)c12 (centres unmarked) [Example 216] | < 2.5
34 | Nc1c([S+]([O-])C2CCC2)sc2nc(-c3cnc(NCCOCCO)nc3)cc(-c3ccccc3)c12 (centres unmarked) [Example 141] | < 2.5
35 | Nc1c([S+]([O-])C2CCC2)sc2nc(-c3cnc(NCCO)nc3)cc(-c3cccc(F)c3)c12 (centres unmarked) [Example 157] | < 2.5
36 | Nc1c([S+]([O-])C2CCC2)sc2nc(-c3cnc(CO)nc3)cc(-c3ccccc3)c12 (centres unmarked) [Example 221] | < 2.5
37 | COCC[S@@+]([O-])c1sc2nc(-c3cccnc3)cc(C(F)(F)F)c2c1N [Example 80] | < 2.5
38 | COCC[S+]([O-])c1sc2nc(-c3cncnc3)cc(-c3ccnc(C)c3)c2c1N (centres unmarked) [Example 127] | < 2.5
39 | COCC[S+]([O-])c1sc2nc(-c3cnc(N)nc3)cc(C3CC3)c2c1N (centres unmarked) [Example 110] | < 2.5
40 | Nc1c([S+]([O-])C2CCC2)sc2nc(-c3cnc(N(CCO)CCO)nc3)cc(-c3ccccc3)c12 (centres unmarked) [Example 197] | < 2.5
41 | CN1CCN(c2ncc(-c3cc(-c4ccccc4)c4c(N)c([S@+]([O-])C5CCC5)sc4n3)cn2)CC1 [Example 48] | < 2.5
42 | COCC[S+]([O-])c1sc2nc(-c3ccc4[nH]nnc4c3)cc(-c3ccnn3C)c2c1N (centres unmarked) [Example 214] | < 2.5
43 | Nc1c([S+]([O-])C2CCC2)sc2nc(-c3cncnc3)cc(-c3ncccc3F)c12 (centres unmarked) [Example 121] | < 2.5
44 | Nc1c([S+]([O-])C2CCC2)sc2nc(-c3cccnc3)cc(C(F)(F)F)c12 (centres unmarked) [Example 58] | < 2.5
45 | Nc1c([S+]([O-])C2CCC2)sc2nc(-c3cnc(NCCO)nc3)cc(C3COC3)c12 (centres unmarked) [Example 222] | < 2.5
46 | COCC[S@@+]([O-])c1sc2nc(-c3cncnc3)cc(-c3ncccn3)c2c1N [Example 230] | < 2.5
47 | Cn1cc(-c2cc(-c3cnc4nn(C)cc4c3)nc3sc([S+]([O-])C4CCC4)c(N)c23)cn1 (centres unmarked) [Example 279] | 2.5 to 10
48 | COCC[S@@+]([O-])c1sc2nc(-c3cncnc3)cc(C3CC3)c2c1N [Example 148] | < 2.5
49 | COCCC[S@+]([O-])c1sc2nc(-c3cncnc3)cc(-c3cnccn3)c2c1N [Example 235] | < 2.5
50 | CN(CCO)c1ncc(-c2cc(-c3ccccc3)c3c(N)c([S@+]([O-])C4CCC4)sc3n2)cn1 [Example 179] | < 2.5
51 | COCCC[S@@+]([O-])c1sc2nc(-c3cnc(NCCO)nc3)cc(C(F)(F)F)c2c1N [Example 207] | < 2.5
52 | Nc1ncc(-c2cc(-c3cncc(F)c3)c3c(N)c([S+]([O-])C4CCC4)sc3n2)cn1 (centres unmarked) [Example 67] | < 2.5
53 | COCCC[S@+]([O-])c1sc2nc(-c3cccnc3)cc(C(F)(F)F)c2c1N [Example 79] | ≥ 10

Row | SMILES | IC50 [nM]
54 | Nc1c([S+]([O-])C2CCC2)sc2nc(-c3cnc(NCCO)nc3)cc(-c3cncc(F)c3)c12 (centres unmarked) [Example 115] | < 2.5
55 | COC(=O)Nc1ccc(-c2cc(-c3cccnc3)c3c(N)c([S+]([O-])C4CCC4)sc3n2)cn1 (centres unmarked) [Example 100] | < 2.5
56 | Nc1c([S@+]([O-])C2CCC2)sc2nc(-c3ccc(NCCO)nc3)cc(-c3ccccn3)c12 [Example 97] | < 2.5
57 | COCCC[S@@+]([O-])c1sc2nc(-c3cncnc3)cc(-c3ccnc(C)c3)c2c1N [Example 170] | < 2.5
58 | COCC[S@@+]([O-])c1sc2nc(-c3cnc(N)nc3)cc(C3CC3)c2c1N [Example 150] | < 2.5
59 | COCC[S+]([O-])c1sc2nc(-c3cnc4nn(CCO)cc4c3)cc(C3CCC3)c2c1N (centres unmarked) [Example 266] | < 2.5
60 | Nc1c([S+]([O-])C2CCC2)sc2nc(-c3cnc(NCCO)nc3)cc(-c3ccccn3)c12 (centres unmarked) [Example 82] | < 2.5
61 | COCCC[S+]([O-])c1sc2nc(-c3cnc4nn(CCO)cc4c3)cc(-c3ccccc3)c2c1N (centres unmarked) [Example 269] | < 2.5
62 | COCCC[S+]([O-])c1sc2nc(-c3cncnc3)cc(C3CCC3)c2c1N (centres unmarked) [Example 254] | < 2.5
63 | COCCC[S+]([O-])c1sc2nc(-c3cnc4nn(C)cc4c3)cc(-c3cccnc3)c2c1N (centres unmarked) [Example 75] | < 2.5
64 | CS(=O)(=O)Nc1ncc(-c2cc(-c3ccccc3)c3c(N)c([S@+]([O-])C4CCC4)sc3n2)cn1 [Example 68] | < 2.5
65 | Nc1c([S+]([O-])C2CCC2)sc2nc(-c3cnc(NCCO)nc3)cc(-c3ccc(F)cc3)c12 (centres unmarked) [Example 158] | 2.5 to 10
66 | Nc1c([S+]([O-])C2CCC2)sc2nc(-c3cncnc3)cc(-c3ccc(OCCO)cc3)c12 (centres unmarked) [Example 183] | < 2.5
67 | CNC(=O)c1ncc(-c2cc(-c3ccccc3)c3c(N)c([S+]([O-])CCCOC)sc3n2)cn1 (centres unmarked) [Example 165] | 2.5 to 10
68 | CN(C)C(=O)c1ncc(-c2cc(-c3ccccc3)c3c(N)c([S+]([O-])C4CCC4)sc3n2)cn1 (centres unmarked) [Example 61] | 2.5 to 10
69 | COCC[S+]([O-])c1sc2nc(-c3cnc(NCCO)nc3)cc(C(F)(F)F)c2c1N (centres unmarked) [Example 140] | 2.5 to 10
70 | COCC[S+]([O-])c1sc2nc(-c3cnn(CCO)c3)cc(-c3ccccc3)c2c1N (centres unmarked) [Example 271] | < 2.5
71 | COCC[S@+]([O-])c1sc2nc(-c3cncnc3)cc(C(F)(F)F)c2c1N [Example 199] | ≥ 10
72 | COCC[S+]([O-])c1sc2nc(-c3cnc4nn(C)cc4c3)cc(C3CC3)c2c1N (centres unmarked) [Example 176] | < 2.5
73 | COCC[S@+]([O-])c1sc2nc(-c3cncnc3)cc(C3CCC3)c2c1N [Example 253] | ≥ 10
74 | COCCC[S+]([O-])c1sc2nc(-c3cnc4c(cnn4C)c3)cc(C3CC3)c2c1N (centres unmarked) [Example 172] | 2.5 to 10
